Data as given in PubChem BioAssay (NCI).
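Abbreviation: GI50, concentration required for 50% inhibition of growth. TGI: total growth inhibition.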

Columns and labels:
Test in all cases: NCI-60 cell line screen, 384-well format
CCRF-CEM leukemia = tested on: CCRF-CEM leukemia
HL-60(TB) leukemia = tested on: HL-60(TB) leukemia
HOP-92 NSCLC = tested on: HOP-92 NSCLC
K-562 leukemia = tested on: K-562 leukemia
MOLT-4 leukemia = tested on: MOLT-4 leukemia
NCI-H23 lung = tested on: NCI-H23 lung
OVCAR-3 ovarian = tested on: OVCAR-3 ovarian
PC-3 prostate = tested on: PC-3 prostate
RPMI-8226 leukemia = tested on: RPMI-8226 leukemia
SN12C renal = tested on: SN12C renal
SNB-19 CNS = tested on: SNB-19 CNS
SR leukemia = tested on: SR leukemia
786-0 renal = tested on: 786-0 renal
A498 renal = tested on: A498 renal
A549 NSCLC = tested on: A549 NSCLC
ACHN renal = tested on: ACHN renal
BT-549 breast = tested on: BT-549 breast
CAKI-1 renal = tested on: CAKI-1 renal
COLO 205 colon = tested on: COLO 205 colon
DU-145 prostate = tested on: DU-145 prostate
EKVX NSCLC = tested on: EKVX NSCLC
HCC-2998 colon = tested on: HCC-2998 colon
HCT-116 colon = tested on: HCT-116 colon
HCT-15 colon = tested on: HCT-15 colon
HOP-62 NSCLC = tested on: HOP-62 NSCLC
HS 578T breast = tested on: HS 578T breast
HT29 colon = tested on: HT29 colon
IGROV1 ovarian = tested on: IGROV1 ovarian
KM12 colon = tested on: KM12 colon
LOX IMVI melanoma = tested on: LOX IMVI melanoma
M14 melanoma = tested on: M14 melanoma
MALME-3M melanoma = tested on: MALME-3M melanoma
MCF7 breast = tested on: MCF7 breast
MDA-MB-231 breast = tested on: MDA-MB-231 breast
MDA-MB-435 melanoma = tested on: MDA-MB-435 melanoma
MDA-MB-468 breast = tested on: MDA-MB-468 breast
NCI-H226 lung = tested on: NCI-H226 lung
NCI-H322M lung = tested on: NCI-H322M lung
NCI-H460 NSCLC = tested on: NCI-H460 NSCLC
NCI-H522 lung = tested on: NCI-H522 lung
NCI/ADR-RES ovarian = tested on: NCI/ADR-RES ovarian
OVCAR-4 ovarian = tested on: OVCAR-4 ovarian
OVCAR-5 ovarian = tested on: OVCAR-5 ovarian
OVCAR-8 ovarian = tested on: OVCAR-8 ovarian
RXF 393 renal = tested on: RXF 393 renal
SF-268 CNS = tested on: SF-268 CNS
SF-295 CNS = tested on: SF-295 CNS
SF-539 CNS = tested on: SF-539 CNS
SK-MEL-28 melanoma = tested on: SK-MEL-28 melanoma
SK-MEL-5 melanoma = tested on: SK-MEL-5 melanoma
SK-OV-3 ovarian = tested on: SK-OV-3 ovarian
SNB-75 CNS = tested on: SNB-75 CNS
SW-620 colon = tested on: SW-620 colon
T-47D breast = tested on: T-47D breast
TK-10 renal = tested on: TK-10 renal
U251 glioblastoma = tested on: U251 glioblastoma
UACC-257 melanoma = tested on: UACC-257 melanoma
UACC-62 melanoma = tested on: UACC-62 melanoma
UO-31 renal = tested on: UO-31 renal

## Cc1cc(OCCOCCC(F)(F)P(=O)(O)O)ccc1CCc1cnc2c(N)nc3cc(CCC(=O)O)ccc3c2c1
CCRF-CEM leukemia
  GI50: 37700 nM
  TGI: > 100000 nM
HL-60(TB) leukemia
  GI50: > 100000 nM
  TGI: > 100000 nM
HOP-92 NSCLC
  GI50: > 100000 nM
  TGI: > 100000 nM
K-562 leukemia
  GI50: 34300 nM
  TGI: > 100000 nM
MOLT-4 leukemia
  GI50: 58100 nM
  TGI: > 100000 nM
NCI-H23 lung
  GI50: 7120 nM
OVCAR-3 ovarian
  GI50: > 100000 nM
  TGI: > 100000 nM
PC-3 prostate
  GI50: > 100000 nM
  TGI: > 100000 nM
RPMI-8226 leukemia
  GI50: 99700 nM
  TGI: > 100000 nM
SN12C renal
  GI50: > 100000 nM
  TGI: > 100000 nM
SNB-19 CNS
  GI50: > 100000 nM
  TGI: > 100000 nM
SR leukemia
  GI50: 9350 nM
  TGI: 29300 nM

## C[C@H]1COCCN1c1cc(C2(S(=O)(=O)C3CC3)CC2)nc(-c2ccc(NC(=S)NCCO)cc2)n1
786-0 renal
  GI50: 50.8 nM
  TGI: 12600 nM
A498 renal
  GI50: < 10 nM
  TGI: 53.1 nM
A549 NSCLC
  GI50: 28.9 nM
  TGI: 1410 nM
ACHN renal
  GI50: 55.1 nM
  TGI: 11800 nM
BT-549 breast
  GI50: 16 nM
  TGI: 121 nM
CAKI-1 renal
  GI50: 17.8 nM
  TGI: 214 nM
CCRF-CEM leukemia
  GI50: 20.6 nM
  TGI: 1630 nM
COLO 205 colon
  GI50: 19.6 nM
  TGI: 3340 nM
DU-145 prostate
  GI50: 59.1 nM
  TGI: 18800 nM
EKVX NSCLC
  GI50: 40.2 nM
  TGI: 1570 nM
HCC-2998 colon
  GI50: 98.6 nM
  TGI: 18600 nM
HCT-116 colon
  GI50: 119 nM
  TGI: 16500 nM
HCT-15 colon
  GI50: 126 nM
  TGI: 86300 nM
HL-60(TB) leukemia
  GI50: 618 nM
  TGI: 15200 nM
HOP-62 NSCLC
  GI50: 39.1 nM
  TGI: 540 nM
HOP-92 NSCLC
  GI50: 25.7 nM
  TGI: 601 nM
HS 578T breast
  GI50: < 10 nM
  TGI: 35.5 nM
HT29 colon
  GI50: 79.3 nM
  TGI: 15800 nM
IGROV1 ovarian
  GI50: < 10 nM
  TGI: 41.9 nM
K-562 leukemia
  GI50: 41.6 nM
  TGI: 16100 nM
KM12 colon
  GI50: 27.8 nM
  TGI: 17600 nM
LOX IMVI melanoma
  GI50: 27.6 nM
  TGI: 640 nM
M14 melanoma
  GI50: 20.7 nM
  TGI: 1830 nM
MALME-3M melanoma
  GI50: < 10 nM
  TGI: 84.3 nM
MCF7 breast
  GI50: < 10 nM
  TGI: 5510 nM
MDA-MB-231 breast
  GI50: 34.2 nM
  TGI: > 100000 nM
MDA-MB-435 melanoma
  GI50: 41.5 nM
  TGI: 3460 nM
MDA-MB-468 breast
  GI50: < 10 nM
  TGI: 31.9 nM
MOLT-4 leukemia
  GI50: < 10 nM
  TGI: 1070 nM
NCI-H226 lung
  GI50: 19.1 nM
  TGI: 101 nM
NCI-H23 lung
  GI50: 83.1 nM
  TGI: 12500 nM
NCI-H322M lung
  GI50: 27.4 nM
  TGI: 15500 nM
NCI-H460 NSCLC
  GI50: < 10 nM
  TGI: 11500 nM
NCI-H522 lung
  GI50: < 10 nM
  TGI: 6640 nM
NCI/ADR-RES ovarian
  GI50: 6720 nM
  TGI: > 100000 nM
OVCAR-3 ovarian
  GI50: 38 nM
  TGI: 6600 nM
OVCAR-4 ovarian
  GI50: 31.8 nM
  TGI: 340 nM
OVCAR-5 ovarian
  GI50: 51.8 nM
  TGI: 7110 nM
OVCAR-8 ovarian
  GI50: 53.4 nM
  TGI: 12700 nM
PC-3 prostate
  GI50: 16.7 nM
  TGI: 4390 nM
RPMI-8226 leukemia
  GI50: 12 nM
  TGI: 85.3 nM
RXF 393 renal
  GI50: 25.9 nM
  TGI: 310 nM
SF-268 CNS
  GI50: < 10 nM
  TGI: 28.9 nM
SF-295 CNS
  GI50: 34.4 nM
  TGI: 335 nM
SF-539 CNS
  GI50: 29.7 nM
  TGI: 598 nM
SK-MEL-28 melanoma
  GI50: 26.2 nM
  TGI: 564 nM
SK-MEL-5 melanoma
  GI50: 11.8 nM
  TGI: 58.5 nM
SK-OV-3 ovarian
  GI50: 20.1 nM
  TGI: 626 nM
SN12C renal
  GI50: 18.4 nM
  TGI: 12200 nM
SNB-19 CNS
  GI50: 100 nM
  TGI: 50200 nM
SNB-75 CNS
  GI50: < 10 nM
  TGI: 50.5 nM
SW-620 colon
  GI50: 130 nM
  TGI: 17800 nM
T-47D breast
  GI50: < 10 nM
  TGI: 17.9 nM
TK-10 renal
  GI50: 92.6 nM
  TGI: 900 nM
U251 glioblastoma
  GI50: 57.2 nM
  TGI: 14900 nM
UACC-257 melanoma
  GI50: 46.3 nM
  TGI: 827 nM
UACC-62 melanoma
  GI50: 15 nM
  TGI: 100 nM
UO-31 renal
  GI50: 121 nM
  TGI: 14000 nM
